Test results as given in patent US12551581B2, “Combination cancer immunotherapy with pentaaza macrocyclic ring complex” (Galera Labs, LLC, priority 2017, dated 2026).
Read-outs that look alike come from different tables or passages of the source.

Legend:
[1] = hamster oral mucositis; Murphy et al. 2008; cited from earlier work
[2] = rat collagen-induced arthritis; Salvemini et al. 2001; cited from earlier work
[3] = rat model; Salvemini et al. 1999; cited from earlier work
[4] = lethal total body irradiation, adult mice; Thompson et al. 2010; cited from earlier work
[5] = rats, experimental colitis; Cuzzocrea et al. 2001; cited from earlier work
LLC tumors = assay: LLC abscopal study, GC4419 with radiation and anti-CTLA4, primary and secondary tumors; format: in vivo, C57Bl/6 mice
Description: Syngeneic animals (C57Bl/6 mice) were subcutaneously implanted with LLC cells in the right flank to form a xenograft (primary tumor). On day 2, the same animals were subcutaneously implanted with LLC cells in the left flank for form another xenograft (secondary tumor). On day 8, some animals began treatment with anti CTLA-4 antibodies (200 μg) as indicated below. On day 11, when both primary and secondary tumors were palpable, all animals were treated with GC4419 (24 mg/kg), 15 Gy of 250 kVp X-rays, and/or anti CTLA-4 antibodies (10 mg/kg), as described in Table 10 below. Tumor growth was tracked as a function of time for both primary and secondary tumors.

[6] = system: Lewis lung carcinoma (LLC) tumors; assay: Lewis lung carcinoma tumors, GC4419 plus ionizing radiation; format: in vivo, C57.CL/6 mice
Description: The effects of GC4419 plus IR on intratumoral levels of key immune cell populations were tested in Lewis lung carcinoma (LLC) tumors. In the study, 4 week old C57.CL/6 mice were injected with LLC cells to form tumors. At 13 days post-injection, animals were treated with GC4419 at doses of 3, 10 and 24 mg/kg and 15 Gy of 250 kVp X-rays. Tumor growth was tracked until tumor size exceeded 2 cm in any one direction. In addition, tumor infiltrating lymphocyte populations were assessed in separate animals via flow cytometry at various time points post IR (15 Gy) in combination with 10 mg/kg GC4419 treatment. Intratumoral populations of neutrophils, macrophages and activated cytotoxic T-cells were altered due to the presence of GC4419 either with or without ionizing radiation, as shown in FIG. 6B. However, it is unclear from this study alone whether these transient alterations in the immune cell populations caused by GC4419 contribute to improved results for the combination of GC4419 with checkpoint inhibitor therapy combined or in the absence of radiation therapy.

[7] = system: 4T1 tumors and lung metastases; assay: 4T1 metastatic breast cancer model, GC4419 with radiation and anti-CTLA4; format: in vivo, mice (syngeneic)
Description: Specifically, as shown in FIGS. 4A-4C, GC4419 decreases metastasis and enhances the efficacy of the combination of radiation and T-cell checkpoint inhibitor anti-CTLA4 (9D9) in the 4T1 metastatic breast cancer model. Syngeneic animals were subcutaneously implanted with 4T1 cells to form a xenograft. On day 12, when no lung metastasis is present, animals were treated with GC4419 (24 mg/kg), 15 Gy of 250 kVp X-rays, and/or anti CTLA-4 antibodies (10 mg/kg) or IgG control antibodies, as described in Table 3 below. Tumor growth was tracked as a function of time and at day 35 post implantation ([…]), animals were euthanized and lungs collected to count metastases.

[8] = system: 4T1 mouse breast cancer tumors; assay: 4T1 syngeneic tumor model, GC4419 with anti-CTLA-4, start day varied (Example 5); format: in vivo, Balb/C mice
Description: GC4419 was administered in combination with the T-cell checkpoint inhibitor anti-CTLA-4 (9D9) to female Balb/C mice implanted subcutaneously with the mouse breast cancer cell line, 4T1. Tumors were allowed to grow for up to 45 days or until they exceeded 3000 mm^3 (or Group mean of 2000 mm^3).
Treatments with the antibody and GC4419 are described in Table 7.
Tumor volumes were assessed and mean values are shown in FIG. 5A (Mean Tumor Volumes in 4T1 Model).
FIG. 5B depicts such an improvement occurring for dosing of GC4419 that is delayed until day 13 after a start of anti-CTLA4 administration (i.e., after the 5th dose of anti-CTLA4). In comparison of arms treated with (a) combination of GC4419 with anti-CTLA4 treatment and (b) anti-CTLA4 treatment alone, no difference should be apparent between the two arms before addition of GC4419 treatment. As a result tumor control was assessed by normalizing the tumor growth curves of each arm with respect to the day on which treatment with GC4419 was started in the combination arm (i.e., day 13 in FIG. 5B).

[9] = system: 4T1 mouse breast cancer tumors; assay: 4T1 syngeneic model, GC4419 with anti-CTLA-4, delayed/skip dosing (Example 6); format: in vivo, Balb/C mice
Description: GC4419 was administered in combination with the T-cell checkpoint inhibitor anti-CTLA-4 (9D9) to female Balb/C mice implanted subcutaneously with the mouse breast cancer cell line, 4T1. Tumors were allowed to grow for up to 35 days or until they exceeded 3000 mm^3 (or Group mean of 2000 mm^3).
Treatments with the antibody and GC4419 are described in Table 8.
Tumor volumes were assessed and mean values are shown in FIGS. 5C and 5D (Mean Tumor Volumes in 4T1 Model).

4T1 tumors [10] = assay: 4T1 tumor volume with GC4419 and/or radiation in immunocompetent mice; format: in vivo, Balb/c mice
Description: (§1) In separate studies, either syngeneic Balb/c mice or immunodeficient nu/nu mice were subcutaneously implanted with 4T1 cells to form a xenograft. On day 11 after transplant, animals were treated with GC4419 (24 mg/kg) and/or 15 Gy of 250 kVp X-rays, as described in Table 5 below.
(§2) Tumor volume was tracked as a function of time, and Day 17 (the last common day of measurement between the two studies given the rapid growth of tumors in the nu/nu mice) mean tumor volumes are described in Table 6 below.

[11] = head-and-neck cancer patients undergoing chemoradiation therapy; Anderson 2015; cited from earlier work
[12] = system: Colon 26 mouse colon cancer cell line tumors; assay: Colon 26 syngeneic tumor model, GC4419 with anti-PD1; format: in vivo, Balb/C mice; settings: 1 and 3 mg/kg bid ip GC4419 added to anti-PD1 5 mg/kg; versus anti-PD1 alone
Description: GC4419 was administered in combination with the T-cell checkpoint inhibitor anti-PD-1 (RMP1-14) to female Balb/C mice implanted with the mouse colon cancer cell line, Colon 26 beginning on day 3 post-implantation. Tumors were allowed to grow for up to 52 days or until they exceeded 1000 mm3.
Treatments with the antibody and GC4419 are described in Table 1.
Tumor volumes were assessed and median and mean values are shown in FIG. 1 (Median Tumor Volumes in Colon 26 Model) and 2 (Mean Tumor Volumes in Colon 26 Model).

4T1 tumors [13] = assay: 4T1 tumor volume with GC4419 and/or radiation in immunodeficient mice; format: in vivo; settings: nu/nu mice
Description: as §1, §2

[14] = rat model; Tuder et al. 2003; cited from earlier work

For `[Cl-].[Cl-].[Mn+2].c1cc2nc(c1)CN[C@@H]1CCCC[C@H]1NCCN[C@@H]1CCCC[C@H]1NC2` [GC4403], the radiation damage [1] is given as “attenuate the radiation damage”, the joint disease [2] is given as “prevent joint disease” and the inflammation [3] is given as “inhibit inflammation”. For the same compound, the radiation damage [4] was “attenuate the radiation damage” and the “injury to the colon” value [5] was “very significantly reduce the injury to the colon”.
In the case of `[Cl][Mn][Cl].c1cc2nc(c1)CN[C@H]1CCCC[C@@H]1NCCN[C@H]1CCCC[C@@H]1NC2` [GC4419], the “sensitization of primary and secondary tumors to radiation (growth delay)” value (LLC tumors; GC4419 D11-15 with 15 Gy RT D11 to primary tumor) is reported as “sensitized primary and secondary tumors to radiation”, the “growth of secondary tumors (FIG. 8E)” value (LLC tumors; GC4419 added to anti CTLA-4 therapy and radiation therapy) is reported as “slowed the growth of secondary tumors” and the “sensitization of primary tumors to combination of anti CTLA-4 therapy and radiation therapy” value (LLC tumors; GC4419 added to anti-CTLA4 200 μg + 15 Gy RT) is reported as “sensitized”. The “intratumoral populations of neutrophils, macrophages and activated cytotoxic T-cells” value ([6]; 10 mg/kg GC4419 with or without IR 15 Gy, flow cytometry, various time points) was “altered”, the “sensitization of tumors to ionizing radiation (FIG. 6A)” value ([6]; GC4419 3, 10 and 24 mg/kg with 15 Gy) was “sensitized tumors to ionizing radiation regardless of dose” and the “sensitization of tumors to radiation (tumor volume, FIG. 4A)” value ([7]; GC4419 24 mg/kg D12-16 with 15 Gy RT D12) was “sensitized 4T1 tumors to radiation regardless of GC4419 dose”. For the same compound, the “efficacy of combination anti CTLA-4 therapy and radiation therapy (tumor volume, FIG. 4B)” value ([7]; GC4419 24 mg/kg added to anti-CTLA4 10 mg/kg + 15 Gy RT) was “enhanced the efficacy of combination anti CTLA-4 therapy and radiation therapy”, the “number of surface lung metastases (FIG. 4C)” value ([7]; day 35 post implantation) was “significantly decreased the number of metastases” and the “% Mice without Lung Metastases” value ([7]; day 35 post implantation, GC4419 24 mg/kg, RT 15 Gy, anti-CTLA4 10 mg/kg) was 0%. The tumor growth ([8]; 3 mg/kg GC4419 QD x 21 added, started at least 3 days after antibody treatment) was “further decrease”, the “normalized tumor growth (FIG. 5B)” value ([8]; GC4419 start delayed until day 13 after start of anti-CTLA4, versus anti-CTLA4 alone) was “reduced tumor growth” and the tumor volumes ([9]; 3 mg/kg or 10 mg/kg GC4419 added to anti-CTLA4, started at least 3 days after antibody) was “significant further decrease in tumor volumes”. For the same compound, the “tumor volume (FIG. 5D)” value ([9]; GC4419 10 mg/kg versus 3 mg/kg, with anti-CTLA4) was “improved results over a dose of 3 mg/kg”, the “tumor volume (FIG. 5C)” value ([9]; skipping GC4419 on days when anti-CTLA4 was administered) was “further improved the results, albeit slightly” and the “V(x) / V(Group 3)” value (4T1 tumors [10]; Balb/c mice, Day 17 volume relative to RT alone group) was 1.25. For the same compound, the “Day 17 Tumor Volume, V” value (4T1 tumors [10]; Balb/c mice, mean, GC4419 24 mg/kg D11-15, RT 15 Gy D11) was 1923 mm^3, the tumor growth (4T1 tumors [10]; Balb/c mice, radiation plus GC4419 versus radiation alone) was “further tumor growth reduction” and the “increase in response to combined radiation and GC4419 treatment” value (4T1 tumors [10]; Balb/c versus nu/nu mice) was “greater in immunocompetent mice than in immunodeficient mice”. For the same compound, the oral mucositis [11] was “reduce oral mucositis”, the tumor growth [12] was “further decrease” and the “Day 17 Tumor Volume, V” value (4T1 tumors [13]; mean, GC4419 24 mg/kg D11-15, RT 15 Gy D11) was “All sac'd at Day 13”. The tumor growth (4T1 tumors [13]; radiation plus GC4419 versus radiation alone) was “further tumor growth reduction” and the “VEGFr inhibitor-induced pulmonary disease” value [14] was “attenuate VEGFr inhibitor-induced pulmonary disease”.
